# Assay results taken from patent US8394776B2, “Use of ursolic acid saponin,oleanolic acid saponin in preparation of increasing leucocytes and/or platelet medicine” (Chengdu Di'Ao Jiuhong Pharmaceutical Factor, priority 2007, dated 2013).
# Tests used:
# [1] = tested on: bone marrow mononuclear cell (BMMNC); test: Monocytic proliferation in bone marrow of mice cultured in vitro (SRB method); assay type: cell-based, KunMing mice; conditions: 1 μg/ml; cultured 5 days; versus blank control
# Excerpt: 15-20 KunMing mice (purchased from Laboratory Animal Center of Zhengzhou University, Henan) of either sex were killed by cervical vertebral dislocation. Bilateral thighbones were isolated and caput femoris was cut off. The marrow was washed repeatedly with serum-free RPMI1640 (Gibco Corp.), the wash solution containing marrow cells was collected, sucked and blew repeatedly with a pipette to make the cells disperse. After standing for a moment, the supernatant was sucked up and centrifugated at 100 g for 3 min to collect the cell pellet. The cells were resuspended in a culture media and brought to a volume of 5 ml. The cell suspension was added to the upper layer of a centrifugal tube containing 5 ml of a lymphocyte separation medium of mice and centrifugated at 400 g for 30 min. The milk-white bone marrow mononuclear cell (BMMNC) layer in the middle of the interface was collected and washed with serum-free medium RPMI1640 for three times to obtain a BMMNC suspension, which was inoculated into a 96-well plate at forty thousand per well after counting. Positive drugs rhG-CSF (recombinant granulocyte colony-stimulating factor, manufactured by QI LU Pharmaceutical Co., LTD., Shandong) or test samples of different concentrations were added, and meanwhile a blank control group without drug was established. They were cultured in a 5% CO2 incubator at 37 for 5 days. Cell proliferation was measured by a conventional SRB (Sigma) method in which OD at 490 nm was measured after being dyed with SRB. The growth rates of cell proliferation after drug treatment were calculated (Growth rate of cell proliferation=experimental group-blank control group/blank control group*100%).
# leukocytes (WBC) = test: Cyclophosphamide-induced leukopenia in mice: leukocytes (WBC); assay type: in vivo, Kunming mice; conditions: 0.8 mg/kg; for leukocytes, Day 1 after modeling / leukocytes, Day 5 after modeling / effect in increasing leukocytes (in words): Experimental Example 3
# Procedure: (§1) Further, in vivo experiments were carried out on the compounds involved in the present invention using animal models of cyclophosphamide-induced leukopenia in mice. Experimental methods are briefed as follows: Healthy Kunming mice, of which half were male and the other half were female, were divided into groups, each group incuding 18 mice, and those mice weighing 18-22 g were selected and divided into groups randomly according to their body weights. Each group was given a different drug, wherein the negative control group and model control group were given physiological saline of the same volume, and the positive control group was treated with granulocyte colony-stimulating factors 40 μg/kg through subcutaneous injection (injection volume: 0.1 ml/10 g). After administration for 3 days, except the negative control group, other treatment groups were treated with 100 mg/kg cyclophosphamide (CY) through lumbar injection once a day for three days to cause a decrease of leukocytes in mice. A drop of blood (20 μl) was taken from posterior orbital venous plexus to detect the hemogram to observe the situation of leukocytes and platelets on day 1, day 3 and/or day 5 after the final lumbar injection of cyclophosphamide (i.e day 1, day 3 and/or day 5 after modeling) (Note: Each treatment group was administrated incessantly). The mice were killed on day 5 after the final lumbar injection of cyclophosphamide (i.e day 5 after modeling), and the leukocytes (WBC) and platelets (PLT) of the hemogram index were counted.
# This experiment mainly studies the effect of G-1, G-6 and G-8 of ursolic acid saponin in increasing leukocytes, and compares the therapeutic effects of aglycon of ursolic acid and oleanolic acid and of the compound G-22 which has been disclosed by a patent.
# (§2) The purpose of this experiment is to study the effect of G-1, G-3, G-11 and G-12 of ursolic acid saponin and oleanolic acid saponin in increasing platelets, and to observe whether G-11 and G-12 of oleanolic acid saponin have an effect in increasing leukocytes.
# platelets (PLT) = test: Cyclophosphamide-induced leukopenia in mice: platelets (PLT); assay type: in vivo, Kunming mice; conditions: Experimental Example 3, 0.8 mg/kg; for difference in increasing platelets compared with G-22 (in words): day 5 after modeling
# Procedure: as §1, §2
# WBC = test: 60Co-γ-induced leukopenia in mice: WBC; assay type: in vivo, Kunming mice
# Excerpt: In order to illustrate the present invention in detail, with a model induced by ^60Co-γ rays, the effects of G-1 and G-22 on leukocytes of chemotherapy-induced-leukopenia mice were compared. The specific operation and the results are as follows.
# Healthy Kunming mice, of which half were male and the other half were female, were divided into 6 groups randomly, with 17-18 in each group. Blood was taken from caudal vein to determine the normal hemogram (leucocyte, erythrocyte, platelet and hemoglobin), and adjustments were made according to body weights and hemogram results. The normal control group and model group were given isometric physiological saline once a day for 7 days, and then the post-radiation hemogram was determined. Except the normal control group, other groups were each subjected to a whole body exposure to ^60Co-γ rays at a total dose of 3.0 Gy to prepare the models of leukopenia in mice, followed by further administration for 14 days. The G-CSF group was adminitrated through subcutaneous injection for 5 days from the irradiation day on and the hemogram was determined by taking blood respectively on day 3, day 7 and day 14 after irradiation.
# [2] = 0.80 mg/kg i.g., 3.0 Gy whole body
compound,measurement,setting,value
"C[C@@H]1CC[C@]2(C(=O)O[C@@H]3O[C@H](CO)[C@@H](O)[C@H](O)[C@H]3O)CC[C@]3(C)C(=CC[C@@H]4[C@@]5(C)CC[C@H](O[C@@H]6OC[C@H](O)[C@H](O)[C@H]6O)C(C)(C)[C@@H]5CC[C@]43C)[C@@H]2[C@]1(C)O [Sample G-22, 3-O-(α-L-arabopyranosyl)-19-hydroxy-ursolic acid-28-O-(β-D-glucopyranosyl) ester, reference compound]","Growth Rate of Proliferation %, 1 μg/ml",[1],15.2%
same,"leukocytes (WBC), Day 3 after modeling",leukocytes (WBC); Experimental Example 2,5.17 ± 1.77
same,"leukocytes (WBC), Day 5 after modeling",leukocytes (WBC); Experimental Example 2,11.87 ± 9.53
same,"leukocytes (WBC), Day1 after modeling","leukocytes (WBC); Experimental Example 2, CY 100 mg/kg x 3 days",1.08 ± 0.34Δ
same,"leukocytes, Day 1 after modeling",leukocytes (WBC),0.92 ± 0.28
same,"leukocytes, Day 5 after modeling",leukocytes (WBC),8.81 ± 6.44
same,"platelets, Day 1 after modelng",platelets (PLT),491.36 ± 126.28
same,"platelets, Day 5 after modeling",platelets (PLT),210.00 ± 119.38
same,effect on leucocyte count of leukopenia mice (in words),"WBC; 0.80 mg/kg gastric perfusion, versus model group, day 7 and day 14 after irradiation",no evident effect
same,"WBC, 1 week after administration","WBC; 0.80 mg/kg i.g. once a day for 7 days, before irradiation",9.50 ± 3.17 109/L
same,"WBC, Day 3 after irradiation",WBC; [2],2.21 ± 0.92 109/L
same,"WBC, Day 7 after irradiation",WBC; [2],4.08 ± 1.50 109/L
same,"WBC, Day 14 after irradiation",WBC; [2],5.44 ± 1.13 109/L
same,"WBC, Normal","WBC; normal hemogram before administration (baseline), 0.80 mg/kg i.g. group",8.56 ± 2.43 109/L
"CC1(C)CC[C@]2(C(=O)O)CC[C@]3(C)C(=CC[C@@H]4[C@@]5(C)CC[C@H](O[C@@H]6OC[C@@H](O)[C@H](O)[C@H]6O)C(C)(C)[C@@H]5CC[C@]43C)[C@@H]2C1 [Sample G-15, 3-O-(β-D-xylopyranosyl) oleanolic acid]","Growth Rate of Proliferation %, 1 μg/ml",[1],20.6%
"CC1(C)CC[C@]2(C(=O)O)CC[C@]3(C)C(=CC[C@@H]4[C@@]5(C)CC[C@H](O[C@@H]6OC[C@@H](O)[C@@H](O)[C@@H]6O)C(C)(C)[C@@H]5CC[C@]43C)[C@@H]2C1 [Sample G-16, 3-O-(α-L-arabopyranosyl) oleanolic acid]","Growth Rate of Proliferation %, 1 μg/ml",[1],21.6%
"C[C@H]1[C@H](C)CC[C@]2(C(=O)O)CC[C@]3(C)C(=CC[C@@H]4[C@@]5(C)CC[C@H](O[C@@H]6O[C@@H](C)[C@H](O)[C@@H](O)[C@H]6O)C(C)(C)[C@@H]5CC[C@]43C)[C@H]12 [Sample G-9, 3-O-(α-L-rhamnopyranosyl) ursolic acid]","Growth Rate of Proliferation %, 1 μg/ml",[1],23.4%
"CC1(C)CC[C@]2(C(=O)O[C@@H]3OC[C@H](O)[C@H](O)[C@H]3O)CC[C@]3(C)C(=CC[C@@H]4[C@@]5(C)CC[C@H](O[C@@H]6OC[C@H](O)[C@H](O)[C@H]6O)C(C)(C)[C@@H]5CC[C@]43C)[C@@H]2C1 [Sample G-11, 3-O-(α-L-arabopyranosyl) oleanolic acid-28-O-(α-L-arabopyranosyl) ester]","Growth Rate of Proliferation %, 1 μg/ml",[1],26.8%
same,effect in increasing leukocytes (in words),leukocytes (WBC),obvious effect in increasing leukocytes at day 1 after modeling
same,"leukocytes, Day 1 after modeling",leukocytes (WBC),0.94 ± 0.77
same,"leukocytes, Day 5 after modeling",leukocytes (WBC),7.55 ± 4.28
same,effect in increasing platelets (in words),platelets (PLT),effect in increasing platelets is obvious on day 1 and day 5
same,"platelets, Day 1 after modelng",platelets (PLT),465.00 ± 99.28
same,"platelets, Day 5 after modeling",platelets (PLT),385.73 ± 198.30**★
same,difference in increasing platelets compared with G-22 (in words),platelets (PLT),significant difference on day 5 compared with G-22
"CC1CCC2(C(=O)OC3OC(CO)C(OC4OC(CO)C(O)C(O)C4O)C(O)C3O)CCC3(C)C(=CCC4C5(C)CCC(OC6OCC(O)C(O)C6O)C(C)(C)C5CCC43C)C2C1C [Sample G-4, 3-O-(α-L-arabopyranosyl) ursolic acid-28-O-(β-cellobiosyl) ester]","Growth Rate of Proliferation %, 1 μg/ml",[1],18.0%
"CC1(C)CCC2(C(=O)OC3OC(COC4OC(CO)C(O)C(O)C4O)C(O)C(O)C3O)CCC3(C)C(=CCC4C5(C)CCC(O)C(C)(C)C5CCC43C)C2C1 (stereo not drawn) [Sample G-18, oleanolic acid-28-O-(β-gentiobiosyl) ester]","Growth Rate of Proliferation %, 1 μg/ml",[1],19.0%
"CC1(C)CC[C@]2(C(=O)O)CC[C@]3(C)C(=CC[C@@H]4[C@@]5(C)CC[C@H](O[C@@H]6O[C@H](C(=O)O)[C@@H](O)[C@H](O)[C@H]6O)C(C)(C)[C@@H]5CC[C@]43C)[C@@H]2C1 [Sample G-19, 3-O-(β-D-glucuronopyranosyl) oleanolic acid]","Growth Rate of Proliferation %, 1 μg/ml",[1],20.9%
"CC1(C)CC[C@]2(C(=O)O[C@@H]3O[C@H](CO)[C@@H](O)[C@H](O)[C@H]3O)CC[C@]3(C)C(=CC[C@@H]4[C@@]5(C)CC[C@H](O)C(C)(C)[C@@H]5CC[C@]43C)[C@@H]2C1 [Sample G-17, oleanolic acid-28-O-(β-D-glucopyranosyl) ester]","Growth Rate of Proliferation %, 1 μg/ml",[1],20.6%
"CC1CCC2(C(=O)O)CCC3(C)C(=CCC4C5(C)CCC(OC6OC(CO)C(O)C(O)C6O)C(C)(C)C5CCC43C)C2C1C [Sample G-7, 3-O-(β-D-glucopyranosyl) ursolic acid]","Growth Rate of Proliferation %, 1 μg/ml",[1],23.7%
"CC1CCC2(C(=O)OC3OC(C)C(O)C(O)C3O)CCC3(C)C(=CCC4C5(C)CCC(OC6OC(C)C(O)C(O)C6O)C(C)(C)C5CCC43C)C2C1C [Sample G-2, 3-O-(α-L-rhamnopyranosyl) ursolic acid-28-O-(α-L-rhamnopyranosyl) ester]","Growth Rate of Proliferation %, 1 μg/ml",[1],19.9%
"CC1(C)CC[C@]2(C(=O)O[C@@H]3O[C@H](CO)[C@@H](O)[C@H](O)[C@H]3O)CC[C@]3(C)C(=CC[C@@H]4[C@@]5(C)CC[C@H](O[C@@H]6O[C@H](CO)[C@@H](O)[C@H](O)[C@H]6O)C(C)(C)[C@@H]5CC[C@]43C)[C@@H]2C1 [Sample G-12, 3-O-(β-D-glucopyranosyl) oleanolic acid-28-O-(β-D-glucopyranosyl) ester]","Growth Rate of Proliferation %, 1 μg/ml",[1],25.4%
same,effect in increasing leukocytes (in words),leukocytes (WBC),obvious effect in increasing leukocytes at day 1 after modeling
same,"leukocytes, Day 1 after modeling",leukocytes (WBC),1.01 ± 0.55
same,"leukocytes, Day 5 after modeling",leukocytes (WBC),5.48 ± 4.39
same,effect in increasing platelets (in words),platelets (PLT),effect in increasing platelets is obvious on day 1 and day 5
same,"platelets, Day 1 after modelng",platelets (PLT),456.88 ± 77.20
same,"platelets, Day 5 after modeling",platelets (PLT),390.86 ± 203.71**★★
same,difference in increasing platelets compared with G-22 (in words),platelets (PLT),significant difference on day 5 compared with G-22
"CC1(C)CCC2(C(=O)O)CCC3(C)C(=CCC4C5(C)CCC(OC6OC(CO)C(O)C(O)C6O)C(C)(C)C5CCC43C)C2C1 [Sample G-14, 3-O-(β-D-galactopyranosyl) oleanolic acid]","Growth Rate of Proliferation %, 1 μg/ml",[1],19.9%
ursolic acid-28-O-(α-L-arabopyranosyl) ester [Sample G-5],"Growth Rate of Proliferation %, 1 μg/ml",[1],20.1%
"CC1CCC2(C(=O)O)CCC3(C)C(=CCC4C5(C)CCC(OC6OC(CO)C(O)C(O)C6O)C(C)(C)C5CCC43C)C2C1C [Sample G-10, 3-O-(β-D-galactopyranosyl) ursolic acid]","Growth Rate of Proliferation %, 1 μg/ml",[1],24.2%
3-O-(β-D-glucopyranosyl) oleanolic acid [Sample G-13],"Growth Rate of Proliferation %, 1 μg/ml",[1],21.6%
